Earlier results, collected in patent US11246836B2, “Intramuscular depot of decoquinate compositions and method of prophylaxis and treatment thereof” (BLUELIGHT PHARMATECH CO., LTD., priority 2018, dated 2022).
Converted amounts (≈) assume the structure as drawn.

Legend:
P. yoelii = settings: 50 mg/kg in a corn oil emulsion
Plasmodium berghei ANKA = settings: single dose of 5 mg/kg suspended in soybean oil

CCCCCCCCCCOc1cc2c(=O)c(C(=O)OCC)c[nH]c2cc1OCC [decoquinate, ethyl-6-decyloxy-7-ethoxy-4-hydroxyquinoline-3-carboxylate]
causal prophylaxis of parasitemia (P. yoelii): efficacious
minimum inhibitory concentration (MIC) (Plasmodium): 5.12 ng/mL (≈ 0.0123 µM)
appearance of blood stage parasites (Plasmodium berghei ANKA): prevent the appearance of blood stage Plasmodium berghei ANKA parasites
